According to patent US20250154193A1, “STEROID COMPOUND, AND PREPARATION METHOD THEREFOR AND APPLICATION THEREOF” (CHOLESGEN (SHANGHAI) CO., LTD., priority 2022, published 2025):

The compounds below were run on SREBP pathway (assay: SREBP luciferase reporter gene system (SRE-luciferase assay) in Huh-7/SRE-Luc cells). Conditions: Homo sapiens, sterol-deficient medium, compound treatment 16 hours, luciferase/GFP ratio.
Type: cell-based
Description: Huh-7/SRE-Luc, a human hepatocellular carcinoma cell line, was grown in a culture medium containing DMEM, 10% fetal bovine serum, 100 units/mL penicillin, 100 µg/mL streptomycin, and 200 μg/mL G418.
The Huh-7/SRE-Luc cell line is a human hepatocellular carcinoma cell line Huh-7 stably expressing LDLR promoter-luciferase and green fluorescent protein (GFP). The LDLR promoter region contains a sterol regulatory element (SRE) that can effectively and sensitively respond to the regulation of the transcription factor SREBP. The GFP signal serves as an internal reference to indicate changes in cell number. Therefore, this cell line can be used to screen for active small molecules that regulate the SREBP signaling pathway. […] Cells were incubated in a sterol-deficient medium (5% lipoprotein-deficient serum, 2 μM Lovastatin, 10 μM mevalonate) and treated with corresponding concentrations of compounds for 16 hours. After compound treatment, the cells were lysed with lysis buffer (E397A, Promega), followed by the addition of luciferase substrate (E1500, Promega). The SRE-driven luciferase activity was measured using a BioTek Synergy HTX microplate reader (including but not limited to this type of instrument). The fluorescence intensity of enhanced green fluorescent protein (EGFP) was also measured using the BioTek microplate reader (including but not limited to this type of instrument) and used as an internal reference. The ratio of SRE-driven luciferase activity to GFP fluorescence intensity was used as an indicator of SREBP pathway activity. The test data of each test compound was analyzed using Prism software to obtain the IC50 parameter of the compound.
The inhibitory effect of the compounds of the present disclosure on the SREBP pathway was tested by the method of bioassay example 2. The concentration gradient of each compound was designed as 0.01, 0.03, 0.1, 0.3, 1.0, 3.0, and […], with DMSO as a vehicle control.
With `C[C@H](CCCC(C)(C)O)[C@H]1CC[C@H]2[C@@H]3CC[C@]4(O)[C@@H](O)[C@@H](O)CC[C@]4(C)[C@H]3CC[C@]12C` (single isomer, unassigned) [compound 248, cholest-3β,4,5,25-tetraol] the IC50 was 0.766 µM. Work on `C[C@H](CCC[C@H](O)c1ccccc1F)[C@H]1CC[C@H]2[C@@H]3CC[C@H]4[C@@H](O)[C@@H](O)CC[C@]4(C)[C@H]3CC[C@]12C` (single isomer, unassigned) [compound 280, 24-[R-(2-fluorophenyl)(hydroxy)methyl]-5α-cholan-30,40-diol or 24-[S-(2-fluorophenyl)(hydroxy)methyl]-5α-cholan-30,40-diol] yielded an IC50 of 0.118 µM. For `COc1ccccc1[C@H](O)CCC[C@@H](C)[C@H]1CC[C@H]2[C@@H]3CC[C@H]4[C@@H](O)[C@@H](O)CC[C@]4(C)[C@H]3CC[C@]12C` (single isomer, unassigned) [compound 325, 24-[S-hydroxy(2-methoxyphenyl)methyl]-5α-cholan-3β,4β-diol or 24-[R-hydroxy(2-methoxyphenyl)methyl]-5α-cholan-3β,4β-diol], the IC50 was 0.09 µM. With `C[C@H](CCCC(C)(C)O)[C@H]1CC[C@H]2[C@@H]3CC[C@H]4C(=NO)[C@@H](O)CC[C@]4(C)[C@H]3CC[C@]12C` (stereo in doubt) [compound 273, [(1R,3aS,3bS,5aR,6E,7S,9aR,9bS,11aR)-7-hydroxy-1-[(2R)-6-hydroxy-6-methylheptan-2-yl]-9a,11a-dimethylhexadecahydro-1H-cyclopenta[1,2-a]phenanthren-6-ylidene]hydroxylamine] the IC50 was 0.279 µM. In the case of `C[C@H](CCCC(C)(C)O)[C@H]1CC[C@H]2[C@@H]3CCC4(O)C[C@@H](O)CC[C@]4(C)[C@H]3CC[C@]12C` (stereo partly shown) [compound 205, cholest-30,5,25-triol], the IC50 is reported as 0.817 µM. `C[C@H](CCCC(C)(C)O)[C@H]1CC[C@H]2[C@@H]3C[C@@H](O)[C@H]4C[C@@H](O)CC[C@]4(C)[C@H]3CC[C@]12C` [compound 206, cholest-3β,6,25-triol] was tested, and the IC50 was 0.464 µM. For `C[C@H](CCCC(C)(C)O)[C@H]1CC[C@H]2[C@@H]3CC(O)C4(O)C[C@@H](O)CC[C@]4(C)[C@H]3CC[C@]12C` (stereo partly drawn) [compound 207, cholest-3β,5,6,25-tetraol], the IC50 was 3.09 µM. With `COC1C[C@H]2[C@@H]3CC[C@H]([C@H](C)CCCC(C)(C)O)[C@@]3(C)CC[C@@H]2[C@@]2(C)CC[C@H](O)CC12O` (stereo partly drawn) [compound 208, 6-methoxycholest-3β,5,25-triol] the IC50 was 1.93 µM. In the case of `C[C@H](CCCC(C)(C)O)[C@H]1CC[C@H]2[C@@H]3C(O)C[C@H]4C[C@@H](O)CC[C@]4(C)[C@H]3CC[C@]12C` (stereo partly drawn) [compound 210, 5α-cholest-3β,7,25-triol], the IC50 is reported as 0.837 µM. Work on `CCC(O)CCC[C@@H](C)[C@H]1CC[C@H]2C3CC[C@H]4C[C@@H](O)CC[C@]4(C)C3CC[C@]12C` (stereo partly drawn) [compound 211, (1R,3aS,5aS,7S,9aS,11aR)-1-[(2R)-6-hydroxyoctan-2-yl]-3a,9a,11a-trimethylhexadecahydro-1H-cyclopenta[1,2-α]phenanthren-7-ol] yielded an IC50 of 0.395 µM. In the case of `C[C@H](CCCC(O)C1CC1)[C@H]1CC[C@H]2[C@@H]3CC[C@H]4C[C@@H](O)CC[C@]4(C)[C@H]3CC[C@]12C` (stereo partly drawn) [compound 217, 24-[cyclopropyl(hydroxy)methyl]-5α-cholan-3β-ol], the IC50 is reported as 0.329 µM. `C[C@H](CCCC(O)C(F)(F)F)[C@H]1CC[C@H]2[C@@H]3CC[C@H]4C[C@@H](O)CC[C@]4(C)[C@H]3CC[C@]12C` (stereo partly drawn) [compound 218, 24-(2,2,2-trifluoro-1-hydroxyethyl)-5α-cholan-3β-ol] showed an IC50 of 0.296 µM. Compound `C[C@H](CCN1CCc2ccccc2C1=O)[C@H]1CC[C@H]2[C@@H]3CC[C@H]4C[C@@H](O)CC[C@]4(C)[C@H]3CC[C@]12C` [compound 224] has an IC50 greater than 10 µM. In the case of `C[C@H](CCCC(C)(C)O)[C@H]1CC[C@H]2[C@@H]3CC(=O)C4(O)C[C@@H](O)CC[C@]4(C)[C@H]3CC[C@]12C` (stereo partly shown) [compound 225, 3P,5,25-trihydroxycholest-6-one], the IC50 is reported as 0.667 µM. Work on `C[C@H](CCCC(C)(C)O)[C@H]1CC[C@H]2[C@@H]3CC(O)C4(F)C[C@@H](O)CC[C@]4(C)[C@H]3CC[C@]12C` (stereo partly shown) [compound 226] yielded an IC50 of 46.6 µM. For `C[C@H](CCCC(C)(C)O)[C@H]1CC[C@H]2[C@@H]3CC(C#N)C4(O)C[C@@H](O)CC[C@]4(C)[C@H]3CC[C@]12C` (stereo partly shown) [compound 227], the IC50 was 1.33 µM. Work on `C[C@H](CCCC(C)(C)O)[C@H]1CC[C@H]2[C@@H]3C(O)C[C@H]4[C@@H](O)[C@@H](O)CC[C@]4(C)[C@H]3CC[C@]12C` (stereo partly drawn) [compound 231, cholest-3β,4p,7,25-tetraol] yielded an IC50 of 1.03 µM. In the case of `C[C@H](CCCC(O)C(F)(F)F)[C@H]1CC[C@H]2[C@@H]3CC[C@H]4[C@@H](O)[C@@H](O)CC[C@]4(C)[C@H]3CC[C@]12C` (stereo partly drawn) [compound 232, 24-(2,2,2-trifluoro-1-hydroxyethyl)-5α-cholan-3β,4β-diol], the IC50 is reported as 0.084 µM. `C[C@H](CCCC(O)C1CC1)[C@H]1CC[C@H]2[C@@H]3CC[C@H]4[C@@H](O)[C@@H](O)CC[C@]4(C)[C@H]3CC[C@]12C` (stereo partly drawn) [compound 233, 24-[cyclopropyl(hydroxy)methyl]-5α-cholan-3β,4β-diol] gave an IC50 of 0.232 µM. In the case of `C[C@H](CCCC(O)c1ccccc1F)[C@H]1CC[C@H]2[C@@H]3CC[C@H]4[C@@H](O)[C@@H](O)CC[C@]4(C)[C@H]3CC[C@]12C` (stereo partly shown) [compound 234], the IC50 is reported as 0.36 µM. `C[C@H](CCCC(C)(C)O)[C@H]1CC[C@H]2[C@@H]3CC(=O)[C@H]4[C@@H](O)[C@@H](O)CC[C@]4(C)[C@H]3CC[C@]12C` [compound 235, 25-hydroxy-4β-hydroxy-3β-hydroxy-5α-cholest-6-one] showed an IC50 of 10.8 µM. `C[C@H](CCCC(C)(C)O)[C@H]1CC[C@@]2(C)[C@@H]3C(O)C[C@H]4C(C)(C)[C@@H](O)CC[C@]4(C)[C@H]3CC[C@]12C` (stereo partly drawn) [compound 237, (1R,3aS,5aR,7S,9aR,11aR)-1-[(2R)-6-hydroxy-6-methylheptan-2-yl]-3a,6,6,9a,11a-pentamethylhexadecahydro-1H-cyclopenta[1,2-α]phenanthrene-4,7-diol] showed an IC50 of 7.04 µM. For `C[C@H](CCCC(C)(C)O)[C@H]1CC[C@H]2[C@@H]3C[C@H](O)[C@H]4C[C@@H](O)CC[C@]4(C)[C@H]3CC[C@]12C` [compound 240, cholest-30,6a,25-triol], the IC50 was 0.67 µM. `CCC(O)CCC[C@@H](C)[C@H]1CC[C@H]2[C@@H]3CC[C@H]4[C@@H](O)[C@@H](O)CC[C@]4(C)[C@H]3CC[C@]12C` (stereo partly drawn) [compound 241, 24-(1-hydroxypropyl)-5α-cholan-3β,4β-diol] gave an IC50 of 0.328 µM. Work on `C[C@H](CCCC(C)(C)O)[C@H]1CC[C@H]2[C@@H]3C(=O)C[C@H]4[C@@H](O)[C@@H](O)CC[C@]4(C)[C@H]3CC[C@]12C` [compound 242, 25-hydroxy-4β-hydroxy-3β-hydroxy-5α-cholest-7-one] yielded an IC50 of 0.556 µM. `C[C@H](CCCC(C)(C)O)[C@H]1CC[C@H]2[C@@H]3CC(O)[C@H]4[C@@H](O)[C@@H](O)CC[C@]4(C)[C@H]3CC[C@]12C` (stereo partly drawn) [compound 244, cholest-3β,4p,6,25-tetraol] showed an IC50 of 3.76 µM. `C[C@H](CCCC1(O)CC1)[C@H]1CC[C@H]2[C@@H]3CC[C@H]4[C@@H](O)[C@@H](O)CC[C@]4(C)[C@H]3CC[C@]12C` [compound 245, (1R,3aS,5aR,6R,7S,9aR,11aR)-1-[(2R)-5-(hydroxycyclopropyl)pentan-2-yl]-9a,11a-dimethylhexadecahydro-1H-cyclopenta[1,2-a]phenanthrene-6,7-diol] was tested, and the IC50 was 0.192 µM. `C[C@H](CCCC(C)(C)O)[C@H]1CC[C@H]2[C@@H]3CC[C@H]4C(O)(C(F)(F)F)[C@@H](O)CC[C@]4(C)[C@H]3CC[C@]12C` (stereo partly drawn) [compound 246, 4-(trifluoromethyl)-5α-cholest-3β,4,25-triol] was tested, and the IC50 was 0.988 µM. `C[C@H](CCCC(O)c1ccccc1F)[C@H]1CC[C@H]2[C@@H]3CC[C@H]4C[C@@H](O)CC[C@]4(C)[C@H]3CC[C@]12C` (stereo partly drawn) [compound 251, 24-[(2-fluorophenyl)(hydroxy)methyl]-5α-cholan-3β-ol] gave an IC50 of 0.321 µM. In the case of `C[C@H](CCCC1(O)CC1)[C@H]1CC[C@H]2[C@@H]3CC[C@H]4C[C@@H](O)CC[C@]4(C)[C@H]3CC[C@]12C` [compound 253, 24-(hydroxycyclopropyl)-5α-cholan-3β-ol], the IC50 is reported as 0.187 µM. For `C[C@H](CCCC(C)(C)O)[C@H]1CC[C@H]2[C@@H]3CC[C@H]4C(C)(O)[C@@H](O)CC[C@]4(C)[C@@]3(C)CC[C@]12C` (stereo partly drawn) [compound 254, 4-methyl-5α-cholest-3β,4,25-triol], the IC50 was 6.19 µM.
